The nature of this data set: Solubility in water. It counts as physicochemical. The method, then: ^13C-BFA has suitable properties for polarization by DNP in that it is soluble forming >5 M solutions in water and readily forms a glass upon flash freezing. A 5 M solution of ^13C-BFA in water was prepared with 15 mM OXO63 radical and polarized by DNP by irradiating at 90940 MHz. A buildup time constant of 830 s provided ˜5% polarization (5450-fold enhancement factor) after 45 minutes. The spectroscopic detection of H2O2 of the probe was accomplished by rapidly dissolving polarized samples of ^13C-BFA in 100 mM phosphate buffer at pH 7.8 to a final concentration of 5 mM, followed by reaction with various concentrations of hydrogen peroxide.

We go through one molecule from US10245330B2, “Compositions and methods for imaging” (The Regents of the University of California, priority 2010, dated 2019).

Where only a bound is given, the exact number is not on record here.

`O=C(c1ccccc1)[13C](=O)O` [^13C-BFA, ^13C-benzoylformic acid]: the “solubility (solutions in water)” value was over 5000 mM.
